Drawing on PubChem BioAssay (NCI), this text covers GI50 and TGI for nine compounds.

Each structure is given as a SMILES string. Values joined by “and” are separate entries in the source; they are usually repeats but may differ in a detail not shown here. Equal values may be shown once.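 The compound was tested at five concentrations on cells cultured in 96-well plates, with a 48-hour exposure period. GI50 is the concentration that inhibits growth by half. TGI: total growth inhibition.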

Among the test systems are NCI-H522 lung; 786-0 renal; HS 578T breast; NCI-H460 lung; MCF7 breast; NCI-H23 lung; HL-60(TB) leukemia; OVCAR-4 ovarian.
Assay in all cases: growth of human tumour cells (NCI), 48 h

On to `O=[N+]([O-])c1cccc(C2CC(c3ccccc3)=Nc3ccccc3S2)c1` (centres undefined), for which the GI50 was 10800 nM with NCI-H522 lung; 17300 nM with 786-0 renal; 20000 nM in the assay with HS 578T breast; 20500 nM in the assay on NCI-H460 lung; 2060 nM in the assay on MCF7 breast; 17900 nM in the assay on NCI-H23 lung. The GI50 in the assay on HL-60(TB) leukemia is 26.5 µM; in the assay with OVCAR-4 ovarian, 11.7 µM. Also, the TGI in the assay with NCI-H522 lung was 23.5 µM; in the assay with 786-0 renal, 31.6 µM; in the assay with HS 578T breast, above 100 µM; in the assay on NCI-H460 lung, 48.7 µM; with MCF7 breast, 13.3 µM; in the assay on NCI-H23 lung, 61.8 µM. Besides, the TGI in the assay with HL-60(TB) leukemia was found to be 84.7 µM; in the assay on OVCAR-4 ovarian, 26.4 µM.

Consider `N=c1c2c(=N)n3c(nc2nc2n1-c1ccccc1Sc1ccccc1-2)sc1cc(Cl)ccc13`, for which the GI50 in the assay with NCI-H522 lung was 1200 nM; in the assay with 786-0 renal, 3640 nM; in the assay on HS 578T breast, 1780 nM; in the assay on NCI-H460 lung, 1770 nM; with MCF7 breast, 2210 nM; in the assay with NCI-H23 lung, 1150 nM. In addition, the GI50 with OVCAR-4 ovarian was 2.78 µM. The TGI with NCI-H522 lung is 6.99 µM; with 786-0 renal, above 100 µM; with HS 578T breast, 7.01 µM; in the assay with NCI-H460 lung, 10.3 µM; with MCF7 breast it was above 100 µM; in the assay on NCI-H23 lung it was 7.02 µM. This compound came in with a TGI with OVCAR-4 ovarian above 100 µM.

As to `COc1cc2nc3cc([N+](=O)[O-])ccc3c(NCCNCC(C)(C)O)c2cc1OC`, the GI50 in the assay with NCI-H522 lung was 256 nM; in the assay on 786-0 renal, 1510 nM; in the assay with HS 578T breast it was 1750 nM; with NCI-H460 lung, 377 nM; with MCF7 breast, 372 nM; in the assay with NCI-H23 lung, 629 nM. Moreover, the GI50 in the assay on HL-60(TB) leukemia is 2.83 µM; in the assay with OVCAR-4 ovarian, 0.672 µM. Moreover, the TGI with NCI-H522 lung turned out to be 1.04 µM; in the assay with 786-0 renal it was 4.04 µM; in the assay with HS 578T breast, 6.15 µM; with NCI-H460 lung it was 1.47 µM; in the assay with MCF7 breast, 2.04 µM; in the assay with NCI-H23 lung, 3.43 µM. In addition, the TGI in the assay with HL-60(TB) leukemia came out at 7.49 µM; in the assay on OVCAR-4 ovarian, 2.99 µM.

As to `CN(Cc1cnc2nc(N)nc(N)c2n1)c1ccc(C(=O)NC(CCC(=O)O)C(=O)O)cc1Br` (centres undefined), the GI50 in the assay with NCI-H522 lung was below 10 nM; in the assay on 786-0 renal it was below 10 nM; in the assay on HS 578T breast, 1100 nM; in the assay on NCI-H460 lung, below 10 nM; in the assay with MCF7 breast, below 10 nM; with NCI-H23 lung, below 10 nM. For the same compound, the GI50 with HL-60(TB) leukemia was below 0.01 µM; in the assay with OVCAR-4 ovarian, 13.7 µM. Also, the TGI with NCI-H522 lung is 31.2 µM; in the assay with HS 578T breast, 6.39 µM; in the assay on NCI-H460 lung it was 4.9 µM; with MCF7 breast it was above 100 µM; with NCI-H23 lung it was 2.12 µM; with HL-60(TB) leukemia, above 100 µM. For the same compound, the TGI with OVCAR-4 ovarian was above 100 µM.

On to `CO[C@H]1C[C@@H]2CC[C@@H](C)[C@@](O)(O2)C(=O)C(=O)N2CCCC[C@H]2C(=O)O[C@H]([C@H](C)C[C@@H]2CC[C@@H](OCCO)[C@H](OC)C2)CC(=O)[C@H](C)C=C(C)[C@@H](O)[C@@H](OC)C(=O)[C@H](C)C[C@H](C)/C=C/C=C/C=C1C`, for which the TGI in the assay with NCI-H522 lung was found to be 17.7 µM; with 786-0 renal it was 20.7 µM; in the assay on NCI-H460 lung, 19.4 µM; with MCF7 breast, 14 µM; in the assay with NCI-H23 lung, 22.7 µM; in the assay on HL-60(TB) leukemia it was 38.4 µM. In the assay with OVCAR-4 ovarian, the TGI stood at 17.1 µM. For the same compound, the GI50 with 786-0 renal is below 10 nM; with HS 578T breast, below 10 nM; in the assay with MCF7 breast, below 10 nM; in the assay on HL-60(TB) leukemia, 8.63 µM; in the assay with OVCAR-4 ovarian it was below 0.0124 µM.

Regarding `CCCCCCCCCCCCCC[C@@H](O)[C@H]1CC[C@H]([C@H]2CC[C@H]([C@H](O)CCCCCC[C@@H](O)CC3=C[C@H](C)OC3=O)O2)O1`, the TGI in the assay on NCI-H522 lung is above 25 µM; in the assay with 786-0 renal it was above 25 µM; with HS 578T breast, 3.15 µM and > 25 µM; in the assay with NCI-H460 lung, 4.26 µM and > 25 µM; in the assay with MCF7 breast, 3.47 µM and > 25 µM; with NCI-H23 lung, above 25 µM. The TGI with HL-60(TB) leukemia was 7.14 µM and > 25 µM; with OVCAR-4 ovarian, above 25 µM. The GI50 was 4310 nM in the assay with 786-0 renal; above 25000 nM with HS 578T breast; 21.4 nM in the assay on NCI-H460 lung; 1140 nM with MCF7 breast; above 25 µM in the assay on HL-60(TB) leukemia.

On to `O=C(CC(Cl)=C(Cl)Cl)c1cccc(Cl)c1Cl`, for which the GI50 in the assay on NCI-H522 lung is 36900 nM; in the assay on 786-0 renal it was 44700 nM; with HS 578T breast it was above 100000 nM; in the assay with NCI-H460 lung it was above 100000 nM; in the assay with MCF7 breast it was 66800 nM; in the assay on NCI-H23 lung, 63200 nM. Also, the GI50 in the assay with HL-60(TB) leukemia is 64.8 µM; with OVCAR-4 ovarian, above 100 µM. Moreover, the TGI with NCI-H522 lung, in the assay with 786-0 renal, with HS 578T breast, with NCI-H460 lung, in the assay on MCF7 breast and in the assay on NCI-H23 lung was above 100 µM in each case. Besides, the TGI in the assay with HL-60(TB) leukemia and in the assay on OVCAR-4 ovarian was above 100 µM in each case.

Regarding `CC[C@H](C)[C@H](NC(=O)CN(C)C)C(=O)N(C)[C@H](C[C@@H](OC(C)=O)c1nc(C(=O)NC23CC(C(=O)OC)(C2)C3)cs1)C(C)C`, the GI50 in the assay with NCI-H522 lung was 51.1 nM; in the assay on 786-0 renal it was 741 nM; with HS 578T breast, 125 nM; with NCI-H460 lung it was 408 nM; in the assay on MCF7 breast, 110 nM; with NCI-H23 lung it was 1220 nM. The GI50 in the assay with HL-60(TB) leukemia was 0.0455 µM; with OVCAR-4 ovarian, 4.64 µM. Further, the TGI with NCI-H522 lung is above 7.88 µM; with 786-0 renal, above 25 µM; with HS 578T breast, above 25 µM; in the assay with NCI-H460 lung it was above 25 µM; in the assay on MCF7 breast, above 25 µM; with NCI-H23 lung, above 25 µM. Further, the TGI with HL-60(TB) leukemia is 0.181 µM; with OVCAR-4 ovarian, above 25 µM.

On to `CC(=O)c1c(C)[nH]c(-c2nc3ccc(N4CCN(C)CC4)cc3[nH]2)c1-c1ccccc1`, for which the GI50 in the assay with NCI-H522 lung was 258 nM; in the assay on 786-0 renal it was 1710 nM; in the assay on HS 578T breast, 392 nM; in the assay on NCI-H460 lung, 4240 nM; with MCF7 breast it was 266 nM; with NCI-H23 lung it was 3020 nM. Besides, the GI50 in the assay on HL-60(TB) leukemia is 0.261 µM; in the assay on OVCAR-4 ovarian, 2.55 µM. For the same compound, the TGI is 14.4 µM in the assay with NCI-H522 lung; 20.5 µM with 786-0 renal; 17.2 µM in the assay with HS 578T breast; 31.4 µM in the assay with NCI-H460 lung; 13.5 µM in the assay on MCF7 breast; 39.3 µM in the assay with NCI-H23 lung. Further, the figures for the TGI in the assay on HL-60(TB) leukemia and in the assay with OVCAR-4 ovarian were 12.7 µM and 43.2 µM, respectively.
